Test results published in article PMC9511441, “Semisynthetic teicoplanin derivatives with dual antimicrobial activity against SARS-CoV-2 and multiresistant bacteria” (Scientific Reports, 2022).
Converted amounts (≈) assume the structure as drawn. Read-outs that look alike come from different tables or passages of the source.

Experiments:
[1] = tested on: SARS-CoV-2 pseudovirus; assay: microbe, parasite or virus in culture; type: cell-based; conditions: cathepsin-dependent endosomal pathway
[2] = tested on: Calu-3 cells; assay: Cytotoxicity in mock-infected Calu-3 cells (XTT); conditions: read-out: CC50, Calu-3 cells, three days
[3] = molecular target: T1, human recombinant cathepsin L (Homo sapiens, UniProt P07711); assay: biochemical; type: biochemical
T1 construct: made in house; host or cells: Escherichia coli
Method: Cathepsin L inhibition was assessed as reported. Briefly, human recombinant cathepsin L was expressed in Escherichia coli[33]. Enzymatic activity was determined in 100 mM acetate buffer (pH 5.5) containing 0.1% PEG 8000, 5 mM cysteine and 1.5 mM EDTA. The enzyme was first activated in assay buffer for 5 min at 37 °C, after which it was added to the wells of a black microplate containing the Z-Phe-Arg-AMC substrate (Bachem) and compounds. Formation of the fluorescent cleavage product was monitored for 50 min at 37 °C, using a Tecan Infinit M1000 spectrofluorimeter set at 460 nm emission and 380 nm excitation wavelength. All assay mixtures contained 5% (v/v) DMSO and 0.01% Triton X-100 to prevent false-positive inhibition due to formation of compound aggregates. All measurements were performed in triplicate and repeated twice. The relative inhibition was calculated using the equation: Relative inhibition (%) = 100(1 − vi/vo), where vi and vo designate the reaction velocities in the presence and absence of inhibitor, respectively. IC50 values were determined from nine data points at different inhibitor concentrations.

[4] = tested on: SARS-CoV-2 pseudovirus; assay: microbe, parasite or virus in culture; type: cell-based; conditions: A549-AT cells, TMPRSS2-mediated uptake
[5] = tested on: VeroE6 cells; assay: Cytotoxicity in mock-infected VeroE6 cells (XTT); type: cell-based, African green monkey; conditions: mock-infected Vero E6 cells, three days, XTT
[6] = tested on: HEL cells; assay: Cytotoxicity in mock-infected HEL cells (MTS); type: cell-based, human; conditions: mock-infected HEL cells, MTS, mean of 2–3 tests
[7] = tested on: SARS-CoV-2; assay: microbe, parasite or virus in culture; type: cell-based; conditions: for EC50: Severe acute respiratory syndrome coronavirus 2, Vero C1008, 72 h, Vero E6 cells, three days, XTT, read-out: EC50, CPE reduction, SARS-CoV-2 in Vero E6 cells
[8] = Cytotoxicity in mock-infected VeroE6 cells (XTT); type: cell-based, African green monkey; conditions: African green monkey; for CC50: mock-infected Vero E6 cells, three days, XTT
[9] = tested on: Klebsiella pneumoniae ST258 clone K 160/09; assay: MIC against Gram-negative strain; conditions: Klebsiella pneumoniae
[10] = tested on: Escherichia coli ATCC 25218; assay: MIC against Gram-negative strain; conditions: ATCC25218
[11] = tested on: Pseudomonas aeruginosa ATCC 27853; assay: MIC against Gram-negative strain; conditions: ATCC27853
[12] = tested on: Acinetobacter baumannii ATCC BAA1605; assay: MIC against Gram-negative strain; conditions: Acinetobacter baumannii, ATCCBAA1605
[13] = tested on: S. epidermidis; assay: microbe, parasite or virus in culture; type: cell-based; conditions: Staphylococcus epidermidis
Text: (§1) We determined the minimal inhibitory concentrations (MIC) of the teicoplanin conjugates for a large panel of Gram-positive bacterial strains, using vancomycin, unmodified teicoplanin, dalbavancin and oritavancin as reference compounds. […] The bacterial strains (see Suppl. Table S5 for all details) were selected to achieve maximum diversity of multidrug-resistance and include strains with known mechanisms of resistance to glycopeptides in clinical use. The S. epidermidis and S. haemolyticus strains resistant to dalbavancin and oritavancin were obtained in vitro from clinical isolates sensitive to the glycopeptide antibiotics.

[14] = tested on: E. faecium; assay: microbe, parasite or virus in culture; type: cell-based; conditions: Enterococcus faecium
Text: as §1

[15] = tested on: S.pyogenes; assay: MIC, broth microdilution; type: cell-based; conditions: Streptococcus pyogenes
Text: as §1

[16] = tested on: S. haemolyticus; assay: MIC, broth microdilution; type: cell-based; conditions: Staphylococcus haemolyticus
Text: as §1

[17] = tested on: S. aureus; assay: MIC, broth microdilution; type: cell-based; conditions: Staphylococcus aureus
Text: as §1

[18] = tested on: E. faecalis; assay: MIC, broth microdilution; type: cell-based; conditions: Enterococcus faecalis
Text: as §1

[19] = read-out: Cathepsin L IC50, pH 5.5, Z-Phe-Arg-AMC substrate

T1 sequence (P07711 114-333): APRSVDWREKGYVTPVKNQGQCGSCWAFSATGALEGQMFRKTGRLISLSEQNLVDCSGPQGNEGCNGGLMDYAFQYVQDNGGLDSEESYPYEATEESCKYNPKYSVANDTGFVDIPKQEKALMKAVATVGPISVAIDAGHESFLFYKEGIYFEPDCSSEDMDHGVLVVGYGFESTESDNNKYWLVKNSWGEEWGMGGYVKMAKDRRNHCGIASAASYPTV

CCCCCCCCOC1C(OC)OC(COCCOCCOCCOCCOCc2cn(C3C(=O)NC4Cc5ccc(c(Cl)c5)Oc5cc6cc(c5O)Oc5ccc(cc5Cl)C(OC5OC(CO)C(O)C(O)C5NC(C)=O)C5NC(=O)C(NC(=O)C6NC(=O)C(NC4=O)c4cc(O)cc(c4)Oc4cc3ccc4O)c3ccc(O)c(c3)-c3c(O)cc(O)cc3C(C(=O)O)NC5=O)nn2)C(O)C1OCCCCCCCC (stereo not drawn) [Compound 1]
Inhibition of pseudovirus entry in Vero cells (in words) [1]: highly effective | CC50 [2]: 75 ± 9 µM | IC50 [3, 19]: 49 ± 1 µM | Inhibition of pseudovirus entry in A549-AT cells (in words) [4]: active, though less potent | CC50 [5]: > 100 µM | CC50 [6]: > 100 µM

OCCCC(F)(F)C(F)(F)C(F)(F)C(F)(F)C(F)(F)C(F)(F)F [Compound 9]
EC50 [7]: > 100 µM | Reduction of the CPE of SARS-CoV-2 in VeroE6 cells (in words) [7]: not active | CC50 [8]: > 100 µM

OCCCC(F)(F)C(F)(F)C(F)(F)C(F)(F)C(F)(F)C(F)(F)C(F)(F)C(F)(F)F [Compound 13]
EC50 [7]: > 100 µM | Reduction of the CPE of SARS-CoV-2 in VeroE6 cells (in words) [7]: not active | CC50 [8]: > 100 µM

N=C(N)NCCSCCCOc1cc(C(=O)OCc2ccccc2)cc(OCCCSCCNC(=N)N)c1OCCCSCCNC(=N)N [Compound 24]
MIC [9]: 128 µg/mL (≈ 173 µM) | MIC [10]: 3.2 µg/mL (≈ 4.34 µM) | MIC [11]: 25.6 µg/mL (≈ 34.7 µM) | IC50 [3]: 18 ± 1 µM | EC50 [7]: > 100 µM | Reduction of the CPE of SARS-CoV-2 in VeroE6 cells (in words) [7]: not active | CC50 at 3 days [8]: 33.2 µM | MIC [12]: 25.6 µg/mL (≈ 34.7 µM)

CC(=O)N[C@H]1[C@H](O[C@@H]2c3ccc(c(Cl)c3)Oc3cc4cc(c3O)Oc3ccc(cc3Cl)C[C@H]3NC(=O)[C@H](NC(=O)CCC(F)(F)C(F)(F)C(F)(F)C(F)(F)C(F)(F)C(F)(F)C(F)(F)C(F)(F)F)c5ccc(O)c(c5)Oc5cc(O)cc(c5)[C@H](NC3=O)C(=O)N[C@H]4C(=O)N[C@H]3C(=O)N[C@@H]2C(=O)N[C@H](C(=O)O)c2cc(O)cc(O)c2-c2cc3ccc2O)O[C@H](CO)[C@@H](O)[C@@H]1O [Compound 5]
MIC ([13]; read-out: Average MIC value, S. epidermidis mecA, 6 strains): 1.4 µg/mL (≈ 0.746 µM) | MIC ([13]; read-out: MIC value, S.epidermidis ORI_R1, mecA): 4 µg/mL (≈ 2.13 µM) | MIC ([13]; read-out: MIC value, S.epidermidis ORI_R2, mecA): 1 µg/mL (≈ 0.533 µM) | MIC ([13]; read-out: MIC value, S.epidermidis ORI_R3, mecA): 2 µg/mL (≈ 1.07 µM) | MIC ([13]; read-out: MIC value, S.epidermidis ORI_R4, mecA): 0.5 µg/mL (≈ 0.266 µM) | MIC ([13]; read-out: MIC value, S.epidermidis TEI_R1, mecA): 0.5 µg/mL (≈ 0.266 µM) | MIC ([13]; read-out: MIC value, S.epidermidis TEI_R2, mecA): 0.5 µg/mL (≈ 0.266 µM) | MIC ([14]; read-out: Average MIC value, E. faecium VAN^R,TEI^R/VanA, 8 strains): > 8 µg/mL | MIC ([14]; read-out: Average MIC value, E. faecium VAN^S, TEI^S, 1 strain): 0.25 µg/mL (≈ 0.133 µM) | MIC ([14]; read-out: MIC value, E.faecium E335, VAN,TEI,LNZ/VanA): > 8 µg/mL | MIC ([14]; read-out: MIC value, E.faecium E355, VAN,TEI,LNZ/VanA): > 8 µg/mL | MIC ([14]; read-out: MIC value, E.faecium E832, VAN,TEI,LNZ/VanA): > 8 µg/mL | MIC ([14]; read-out: MIC value, E.faecium E854, VAN,TEI,LNZ/VanA): > 8 µg/mL | MIC ([14]; read-out: MIC value, E.faecium E859, VAN,TEI,LNZ/VanA): > 8 µg/mL | MIC ([14]; read-out: MIC value, E.faecium E1114, VAN,TEI,LNZ/VanA): > 8 µg/mL | MIC ([14]; read-out: MIC value, E.faecium E1131, VAN,TEI,LNZ/VanA): > 8 µg/mL | MIC ([14]; read-out: MIC value, E.faecium E1132, VAN,TEI,LNZ/VanA): > 8 µg/mL | MIC ([14]; read-out: MIC value, E.faecium TX0016): 0.25 µg/mL (≈ 0.133 µM) | CC50 [2]: > 100 µM | IC50 [3, 19]: 52 ± 1 µM | MIC ([15]; read-out: MIC value, S.pyogenes H232): 0.25 µg/mL (≈ 0.133 µM) | MIC ([15]; read-out: MIC value, S.pyogenes H550): 0.25 µg/mL (≈ 0.133 µM) | MIC ([15]; read-out: MIC value, S.pyogenes H578): 0.25 µg/mL (≈ 0.133 µM) | MIC ([16]; S. haemolyticus mecA, 6 strains, read-out: Average MIC value): 7 µg/mL (≈ 3.73 µM) | MIC ([16]; S.haemolyticus DALB_R1, mecA, read-out: MIC value): 8 µg/mL (≈ 4.26 µM) | MIC ([16]; S.haemolyticus DALB_R2, mecA, read-out: MIC value): 8 µg/mL (≈ 4.26 µM) | MIC ([16]; S.haemolyticus DALB_R3, mecA, read-out: MIC value): 8 µg/mL (≈ 4.26 µM) | MIC ([16]; S.haemolyticus DALB_R4, mecA, read-out: MIC value): 8 µg/mL (≈ 4.26 µM) | MIC ([16]; S.haemolyticus DALB_R5, mecA, read-out: MIC value): 2 µg/mL (≈ 1.07 µM) | MIC ([16]; S.haemolyticus ORI_R1, mecA, read-out: MIC value): 8 µg/mL (≈ 4.26 µM) | MIC ([17]; ATCC 29213 / MSSA, read-out: MIC value, S. aureus ATCC29213, MSSA): 1 µg/mL (≈ 0.533 µM) | MIC ([17]; MRSA / USA300, read-out: MIC value, S. aureus USA300, CA-MRSA): 4 µg/mL (≈ 2.13 µM) | MIC ([17]; MRSA, read-out: Average MIC value, S. aureus CA-MRSA, 1 strain): 4 µg/mL (≈ 2.13 µM) | MIC ([17]; MRSA, read-out: Average MIC value, S. aureus MRSA, 7 strains): 2.57 µg/mL (≈ 1.37 µM) | MIC ([17]; MRSA, read-out: MIC value, S. aureus 73OL, MRSA): 2 µg/mL (≈ 1.07 µM) | MIC ([17]; MRSA, read-out: MIC value, S. aureus 214OL, MRSA): 4 µg/mL (≈ 2.13 µM) | MIC ([17]; MRSA, read-out: MIC value, S. aureus 1041OL, MRSA): 4 µg/mL (≈ 2.13 µM) | MIC ([17]; MRSA, read-out: MIC value, S. aureus A6918, MRSA): 2 µg/mL (≈ 1.07 µM) | MIC ([17]; MRSA, read-out: MIC value, S. aureus A6919, MRSA): 2 µg/mL (≈ 1.07 µM) | MIC ([17]; MRSA, read-out: MIC value, S. aureus Mu50, MRSA): 2 µg/mL (≈ 1.07 µM) | MIC ([17]; MRSA, read-out: MIC value, S. aureus N315, MRSA): 2 µg/mL (≈ 1.07 µM) | MIC ([17]; MSSA / NEWMAN, read-out: MIC value, S. aureus Newman, MSSA): 2 µg/mL (≈ 1.07 µM) | MIC ([17]; MSSA, read-out: Average MIC value, S. aureus MSSA, 4 strains): 1.75 µg/mL (≈ 0.933 µM) | MIC ([17]; MSSA, read-out: MIC value, S. aureus MSSA476, MSSA): 2 µg/mL (≈ 1.07 µM) | MIC ([17]; MSSA, read-out: MIC value, S. aureus SA564, MSSA): 2 µg/mL (≈ 1.07 µM) | MIC ([18]; read-out: Average MIC value, E. faecalis VAN^R,TEI^R/VanA, 1 strain): > 8 µg/mL | MIC ([18]; read-out: Average MIC value, E. faecalis VAN^S, TEI^S, 2 strains): 0.25 µg/mL (≈ 0.133 µM) | MIC ([18]; read-out: MIC value, E.faecalis JH2-2): 0.25 µg/mL (≈ 0.133 µM) | MIC ([18]; read-out: MIC value, E.faecalis OG1RF): 0.25 µg/mL (≈ 0.133 µM) | MIC ([18]; read-out: MIC value, E.faecalis V583, VAN,TEI/VanA): > 8 µg/mL | CC50 [5]: > 100 µM | CC50 [6]: > 100 µM
